Source: patent US9878046B2, “Adverse side-effects associated with administration of an anti-hyaluronan agent and methods for ameliorating or preventing the side-effects” (Halozyme, Inc., priority 2010, dated 2018)

Legend:
[1] = system: BxPC3 pancreatic cancer cell line; experiment: Antitumor activity in BxPC3 pancreatic cancer xenograft model; format: in vivo, human (xenograft in athymic female nude mice)
Procedure: Tumor cells from the BxPC3 pancreatic cancer cell line were grown to approximately 80% confluency, trypsinized, collected, washed once in HBSS (Hank's balance salt solution, Mediatech Inc.), and re-suspended in 50% Matrigel in HBSS at 2×10^7 cells/mL on ice before inoculation into animals. Athymic female nude mice (average weight ˜20 g) were inoculated intramuscularly (IM) with 0.05 mL of cell suspension, peritibially, in the left hind leg (adjacent to the tibia periosteum). The tumors in the animals were assessed twice a week and allowed to grow to a mean tumor volume of approximately 250 mm^3 (Day −1; Table 13). Actual tumor volumes were determined using VisualSonics Vevo 770 high-resolution ultrasound.
The animals were randomly grouped into 6 groups of 8 animals per group (6+2 satellite mice) and treated with vehicle (API buffer), PEGPH20 (157,500 Units/kg, 4.5 mg/kg), low dose dexamethasone (1.25 mg/kg), high dose dexamethasone (5 mg/kg), PEGPH20 (4.5 mg/kg)+low dose dexamethasone (1.25 mg/kg) and PEGPH20 (4.5 mg/kg)+high dose dexamethasone (5 mg/kg). The dose and frequency of the PEGPH20 (or vehicle) intravenous injections was 157,500 Units/kg or approximately 4.5 mg/kg, on Days 0, 3, 7, 10, 13 and 17 for a total of 6 injections starting on Day 0 (dose volume of 0.1 mL). The doses and frequency of the dexamethasone intraperitonal injections was 1.25 mg/kg at the low dose and 5 mg/kg at the high dose, once a day until Day 17 (QDx17) with a dose volume of 0.1 mL.
The tumor volumes of all mice were measured pre-treatment on Days −4 and −1 (mean tumor volume of ˜250 mm^3) and on Days 4, 7, 11, 14 and 17 by capturing images using the VisualSonic ultrasound system and using an ultrasound imaging software program to calculate the tumor volume (Table 13). The percent tumor growth inhibition (% TGI) was calculated as described above in Example 9A.

[2] = system: PC3 prostate carcinoma cell line; experiment: Antitumor activity in PC3 prostate cancer xenograft model; format: in vivo, human (xenograft in athymic male nude mice)
Procedure: Tumor cells from the PC3 prostate carcinoma cell line were grown to approximately 80% confluency then trypsinized, collected, washed once in HBSS (Hank's balance salt solution, Mediatech Inc.), then re-suspended in 50% Matrigel® in HBSS at 2×10^7 cells/mL on ice before inoculation into animals. Athymic male nude mice (Nu/Nu (Ncr); Taconic Farms; average weight ˜20 g) were inoculated intramuscularly (IM) with 0.05 mL of this cell suspension, peritibially, in the left hind leg (adjacent to the tibia periosteum). The implants in the animals were assessed twice a week and allowed to grow to a mean tumor volume of approximately 500 mm^3 (Day −2; Table 12). Actual tumor volumes were determined using VisualSonics Vevo 770 high-resolution ultrasound, using two perpendicular axial dimensions.
Animals were sorted randomly and grouped into 6 groups of 8 mice per group (6+2 satellite mice). Treatment groups were vehicle (API buffer), PEGPH20 (157,500 Units/kg, 4.5 mg/kg), low dose dexamethasone (1.25 mg/kg), high dose dexamethasone (5 mg/kg), PEGPH20 (4.5 mg/kg)+low dose dexamethasone (1.25 mg/kg) and PEGPH20 (4.5 mg/kg)+high dose dexamethasone (5 mg/kg). The dose and frequency of the PEGPH20 (or vehicle) intravenous injections was 157,500 Units/kg or approximately 4.5 mg/kg, every 3rd day starting on Day 0 (Days 0, 3, 6, 9, 12) with a total of 5 injections (Q3Dx5) with a dose volume of 0.1 mL. This dosing and frequency regimen was previously shown to inhibit xenograft tumor growth by 34-70%. The doses and frequency of the dexamethasone intraperitonal injections were 1.25 mg/kg at the low dose and 5 mg/kg at the high dose, once a day until Day 13 (QDx13) with a dose volume of 0.1 mL.
The tumor volumes of all mice were measured pre-treatment on Day −2 (average tumor volume of ˜500 mm^3) and on Day 1, 6, 9, 13, 16 and 20 by capturing images using the VisualSonic ultrasound system and using an ultrasound imaging software program to calculate tumor volume (Table 12).

C[C@@H]1C[C@H]2[C@@H]3CCC4=CC(=O)C=C[C@]4(C)[C@@]3(F)[C@@H](O)C[C@]2(C)[C@@]1(O)C(=O)CO [Dexamethasone]
Tumor volume ([1]; Day 4, PEGPH20 4.5 mg/kg IV x6 and/or dexamethasone 1.25 mg/kg IP QDx17): 463.51 mm^3
Tumor volume ([1]; Day 4, dexamethasone 5 mg/kg IP QDx17, alone or + PEGPH20 4.5 mg/kg IV x6): 396.26 mm^3
Tumor volume ([1]; Day 7, PEGPH20 4.5 mg/kg IV x6 and/or dexamethasone 1.25 mg/kg IP QDx17): 609.40 mm^3
Tumor volume ([1]; Day 7, dexamethasone 5 mg/kg IP QDx17, alone or + PEGPH20 4.5 mg/kg IV x6): 379.39 mm^3
% TGI (% Tumor Growth Inhibition) ([1]; Day 7, dexamethasone 5 mg/kg alone or + PEGPH20 4.5 mg/kg): 53%
Tumor volume ([1]; Day 11, PEGPH20 4.5 mg/kg IV x6 and/or dexamethasone 1.25 mg/kg IP QDx17): 732.92 mm^3
Tumor volume ([1]; Day 11, dexamethasone 5 mg/kg IP QDx17, alone or + PEGPH20 4.5 mg/kg IV x6): 481.54 mm^3
% TGI (% Tumor Growth Inhibition) ([1]; Day 11, dexamethasone 5 mg/kg alone or + PEGPH20 4.5 mg/kg): 49%
Tumor volume ([1]; Day 14, PEGPH20 4.5 mg/kg IV x6 and/or dexamethasone 1.25 mg/kg IP QDx17): 796.84 mm^3
Tumor volume ([1]; Day 14, dexamethasone 5 mg/kg IP QDx17, alone or + PEGPH20 4.5 mg/kg IV x6): 603.82 mm^3
% TGI (% Tumor Growth Inhibition) ([1]; Day 14, dexamethasone 5 mg/kg alone or + PEGPH20 4.5 mg/kg): 46%
Tumor volume ([1]; Day 17, PEGPH20 4.5 mg/kg IV x6 and/or dexamethasone 1.25 mg/kg IP QDx17): 933.86 mm^3
Tumor volume ([1]; Day 17, dexamethasone 5 mg/kg IP QDx17, alone or + PEGPH20 4.5 mg/kg IV x6): 720.95 mm^3
% TGI (% Tumor Growth Inhibition) ([1]; Day 17, dexamethasone 5 mg/kg alone or + PEGPH20 4.5 mg/kg): 50%
Tumor volume ([1]; Day −1 (pre-treatment), PEGPH20 4.5 mg/kg IV x6 and/or dexamethasone 1.25 mg/kg IP QDx17): 312.65 mm^3
Tumor volume ([1]; Day −1 (pre-treatment), dexamethasone 5 mg/kg IP QDx17, alone or + PEGPH20 4.5 mg/kg IV x6): 231.18 mm^3
Tumor volume ([1]; Day −4 (pre-treatment), PEGPH20 4.5 mg/kg IV x6 and/or dexamethasone 1.25 mg/kg IP QDx17): 202.85 mm^3
Tumor volume ([1]; Day −4 (pre-treatment), dexamethasone 5 mg/kg IP QDx17, alone or + PEGPH20 4.5 mg/kg IV x6): 197.29 mm^3
Tumor volume ([2]; Day 1, PEGPH20 4.5 mg/kg IV Q3Dx5 and/or dexamethasone 1.25 mg/kg IP QDx13): 636.98 mm^3
Tumor volume ([2]; Day 1, dexamethasone 5 mg/kg IP QDx13, alone or + PEGPH20 4.5 mg/kg IV Q3Dx5): 633.84 mm^3
Tumor volume ([2]; Day 6, PEGPH20 4.5 mg/kg IV Q3Dx5 and/or dexamethasone 1.25 mg/kg IP QDx13): 727.80 mm^3
Tumor volume ([2]; Day 6, dexamethasone 5 mg/kg IP QDx13, alone or + PEGPH20 4.5 mg/kg IV Q3Dx5): 854.90 mm^3
Tumor volume ([2]; Day 9, PEGPH20 4.5 mg/kg IV Q3Dx5 and/or dexamethasone 1.25 mg/kg IP QDx13): 964.35 mm^3
Tumor volume ([2]; Day 9, dexamethasone 5 mg/kg IP QDx13, alone or + PEGPH20 4.5 mg/kg IV Q3Dx5): 995.47 mm^3
Tumor volume ([2]; Day 13, PEGPH20 4.5 mg/kg IV Q3Dx5 and/or dexamethasone 1.25 mg/kg IP QDx13): 1202.35 mm^3
Tumor volume ([2]; Day 13, dexamethasone 5 mg/kg IP QDx13, alone or + PEGPH20 4.5 mg/kg IV Q3Dx5): 1211.50 mm^3
Tumor volume ([2]; Day 16, PEGPH20 4.5 mg/kg IV Q3Dx5 and/or dexamethasone 1.25 mg/kg IP QDx13): 1401.91 mm^3
Tumor volume ([2]; Day 16, dexamethasone 5 mg/kg IP QDx13, alone or + PEGPH20 4.5 mg/kg IV Q3Dx5): 1455.27 mm^3
Tumor volume ([2]; Day 20, PEGPH20 4.5 mg/kg IV Q3Dx5 and/or dexamethasone 1.25 mg/kg IP QDx13): 1792.92 mm^3
Tumor volume ([2]; Day 20, dexamethasone 5 mg/kg IP QDx13, alone or + PEGPH20 4.5 mg/kg IV Q3Dx5): 1840.11 mm^3
Tumor volume ([2]; Day −2 (pre-treatment), PEGPH20 4.5 mg/kg IV Q3Dx5 and/or dexamethasone 1.25 mg/kg IP QDx13): 486.88 mm^3
Tumor volume ([2]; Day −2 (pre-treatment), dexamethasone 5 mg/kg IP QDx13, alone or + PEGPH20 4.5 mg/kg IV Q3Dx5): 516.25 mm^3
